Measurements from ChEMBL document CHEMBL4507274 (2021).

Legend:
[1] = biological target: Beta-2 adrenergic receptor (Homo sapiens) (UniProt P07550); conditions: Compound concentration 10.0 uM
[2] = biological target: Serine/threonine-protein kinase TAO2 (Homo sapiens) (UniProt Q9UL54); conditions: Compound concentration 100.0 nM
[3] = biological target: Serine/threonine-protein kinase PknB (Mycobacterium tuberculosis) (UniProt P9WI81); conditions: Compound concentration 100.0 nM
[4] = biological target: Ephrin type-B receptor 2 (Homo sapiens) (UniProt P29323); conditions: Compound concentration 100.0 nM
[5] = biological target: Receptor-interacting serine/threonine-protein kinase 1 (Homo sapiens) (UniProt Q13546); conditions: Compound concentration 100.0 nM
[6] = biological target: Dual specificity testis-specific protein kinase 1 (Homo sapiens) (UniProt Q15569); conditions: Compound concentration 100.0 nM
[7] = biological target: Serine/threonine-protein kinase ULK3 (Homo sapiens) (UniProt Q6PHR2); conditions: Compound concentration 100.0 nM
[8] = biological target: 1-phosphatidylinositol 3-phosphate 5-kinase (Homo sapiens) (UniProt Q9Y2I7); conditions: Compound concentration 100.0 nM
[9] = biological target: Serine/threonine-protein kinase DCLK2 (Homo sapiens) (UniProt Q8N568); conditions: Compound concentration 100.0 nM
[10] = biological target: Inhibitor of nuclear factor kappa-B kinase subunit alpha (Homo sapiens) (UniProt O15111); conditions: Compound concentration 100.0 nM
[11] = biological target: Rhodopsin kinase GRK7 (Homo sapiens) (UniProt Q8WTQ7); conditions: Compound concentration 100.0 nM
[12] = biological target: Muscarinic acetylcholine receptor M1 (Homo sapiens) (UniProt P11229); conditions: Compound concentration 10.0 uM
[13] = biological target: Casein kinase I isoform epsilon (Homo sapiens) (UniProt P49674); conditions: Compound concentration 100.0 nM
[14] = biological target: Wee1-like protein kinase (Homo sapiens) (UniProt P30291); conditions: Compound concentration 100.0 nM
[15] = biological target: Myosin light chain kinase, smooth muscle (Homo sapiens) (UniProt Q15746); conditions: Compound concentration 100.0 nM
[16] = biological target: T1, Serine/threonine-protein kinase D1 (Homo sapiens) (UniProt Q15139); conditions: Compound concentration 100.0 nM
T1 sequence (whole entry): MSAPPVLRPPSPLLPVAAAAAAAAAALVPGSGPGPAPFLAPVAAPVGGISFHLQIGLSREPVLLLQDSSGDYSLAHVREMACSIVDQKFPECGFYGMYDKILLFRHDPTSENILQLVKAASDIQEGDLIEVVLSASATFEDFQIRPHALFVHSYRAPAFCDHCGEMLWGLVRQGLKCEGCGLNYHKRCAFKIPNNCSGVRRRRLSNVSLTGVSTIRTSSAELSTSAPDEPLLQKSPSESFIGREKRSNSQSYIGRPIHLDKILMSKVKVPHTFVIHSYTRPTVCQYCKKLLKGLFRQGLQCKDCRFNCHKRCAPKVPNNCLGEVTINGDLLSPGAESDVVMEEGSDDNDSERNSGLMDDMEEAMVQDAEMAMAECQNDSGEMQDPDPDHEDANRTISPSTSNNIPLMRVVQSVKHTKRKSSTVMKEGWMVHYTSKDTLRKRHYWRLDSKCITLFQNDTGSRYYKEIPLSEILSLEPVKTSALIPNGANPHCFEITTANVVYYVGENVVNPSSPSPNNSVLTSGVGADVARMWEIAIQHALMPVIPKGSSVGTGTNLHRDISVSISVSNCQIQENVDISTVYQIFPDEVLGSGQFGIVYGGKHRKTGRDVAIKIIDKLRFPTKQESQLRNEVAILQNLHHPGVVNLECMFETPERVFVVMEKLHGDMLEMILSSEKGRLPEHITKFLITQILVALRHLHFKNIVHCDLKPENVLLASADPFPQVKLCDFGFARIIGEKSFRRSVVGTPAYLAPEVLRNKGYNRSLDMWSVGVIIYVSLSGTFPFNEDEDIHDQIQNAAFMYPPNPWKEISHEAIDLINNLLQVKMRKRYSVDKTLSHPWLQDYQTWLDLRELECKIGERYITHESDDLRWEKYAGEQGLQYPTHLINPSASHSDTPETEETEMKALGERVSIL

[17] = biological target: Tyrosine-protein kinase JAK1 (Homo sapiens) (UniProt P23458); conditions: Compound concentration 100.0 nM
[18] = biological target: Serine/threonine-protein kinase TNNI3K (Homo sapiens) (UniProt Q59H18); conditions: Compound concentration 100.0 nM
[19] = biological target: Cyclin-dependent kinase 4 (Homo sapiens) (UniProt P11802); conditions: Compound concentration 100.0 nM
[20] = biological target: Dual specificity mitogen-activated protein kinase kinase 1 (Homo sapiens) (UniProt Q02750); conditions: Compound concentration 100.0 nM
[21] = biological target: Glycogen synthase kinase-3 beta (Homo sapiens) (UniProt P49841); conditions: Compound concentration 100.0 nM
[22] = test system: Phosphatidylinositol 4,5-bisphosphate 3-kinase catalytic subunit alpha isoform (Homo sapiens), P42336 [H1047Y]; conditions: Compound concentration 100.0 nM
[23] = biological target: Cyclin-dependent kinase-like 3 (Homo sapiens) (UniProt Q8IVW4); conditions: Compound concentration 100.0 nM
[24] = biological target: Cyclin-G-associated kinase (Homo sapiens) (UniProt O14976); conditions: Compound concentration 100.0 nM
[25] = biological target: Platelet-derived growth factor receptor alpha (Homo sapiens) (UniProt P16234); conditions: Compound concentration 100.0 nM
[26] = biological target: Bone morphogenetic protein receptor type-2 (Homo sapiens) (UniProt Q13873); conditions: Compound concentration 100.0 nM
[27] = biological target: Alpha-2B adrenergic receptor (Homo sapiens) (UniProt P18089); conditions: Compound concentration 10.0 uM
[28] = biological target: Homeodomain-interacting protein kinase 4 (Homo sapiens) (UniProt Q8NE63); conditions: Compound concentration 100.0 nM
[29] = biological target: Cyclin-dependent kinase 8 (Homo sapiens) (UniProt P49336); conditions: Compound concentration 100.0 nM
[30] = biological target: cAMP-dependent protein kinase catalytic subunit PRKX (Homo sapiens) (UniProt P51817); conditions: Compound concentration 100.0 nM
[31] = test system: Mast/stem cell growth factor receptor Kit (Homo sapiens), P10721 [V559D,T670I]; conditions: Compound concentration 100.0 nM
[32] = biological target: 5'-AMP-activated protein kinase catalytic subunit alpha-1 (Homo sapiens) (UniProt Q13131); conditions: Compound concentration 100.0 nM
[33] = test system: Phosphatidylinositol 4,5-bisphosphate 3-kinase catalytic subunit alpha isoform (Homo sapiens), P42336 [H1047L]; conditions: Compound concentration 100.0 nM

Alpha-2B adrenergic receptor (Homo sapiens), sequence (P18089 whole entry): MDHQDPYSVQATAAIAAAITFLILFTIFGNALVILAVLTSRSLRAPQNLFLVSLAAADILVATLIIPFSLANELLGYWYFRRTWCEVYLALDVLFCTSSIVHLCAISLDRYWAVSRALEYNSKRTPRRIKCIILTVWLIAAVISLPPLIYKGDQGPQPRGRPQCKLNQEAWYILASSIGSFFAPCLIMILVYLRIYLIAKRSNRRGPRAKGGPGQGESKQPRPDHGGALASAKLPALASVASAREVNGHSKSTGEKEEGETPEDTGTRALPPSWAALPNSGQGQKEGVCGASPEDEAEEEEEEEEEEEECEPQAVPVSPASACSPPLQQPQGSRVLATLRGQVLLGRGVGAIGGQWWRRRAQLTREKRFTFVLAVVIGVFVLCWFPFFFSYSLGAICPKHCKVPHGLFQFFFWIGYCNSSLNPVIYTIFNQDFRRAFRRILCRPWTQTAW
Bone morphogenetic protein receptor type-2 (Homo sapiens), sequence (Q13873 whole entry): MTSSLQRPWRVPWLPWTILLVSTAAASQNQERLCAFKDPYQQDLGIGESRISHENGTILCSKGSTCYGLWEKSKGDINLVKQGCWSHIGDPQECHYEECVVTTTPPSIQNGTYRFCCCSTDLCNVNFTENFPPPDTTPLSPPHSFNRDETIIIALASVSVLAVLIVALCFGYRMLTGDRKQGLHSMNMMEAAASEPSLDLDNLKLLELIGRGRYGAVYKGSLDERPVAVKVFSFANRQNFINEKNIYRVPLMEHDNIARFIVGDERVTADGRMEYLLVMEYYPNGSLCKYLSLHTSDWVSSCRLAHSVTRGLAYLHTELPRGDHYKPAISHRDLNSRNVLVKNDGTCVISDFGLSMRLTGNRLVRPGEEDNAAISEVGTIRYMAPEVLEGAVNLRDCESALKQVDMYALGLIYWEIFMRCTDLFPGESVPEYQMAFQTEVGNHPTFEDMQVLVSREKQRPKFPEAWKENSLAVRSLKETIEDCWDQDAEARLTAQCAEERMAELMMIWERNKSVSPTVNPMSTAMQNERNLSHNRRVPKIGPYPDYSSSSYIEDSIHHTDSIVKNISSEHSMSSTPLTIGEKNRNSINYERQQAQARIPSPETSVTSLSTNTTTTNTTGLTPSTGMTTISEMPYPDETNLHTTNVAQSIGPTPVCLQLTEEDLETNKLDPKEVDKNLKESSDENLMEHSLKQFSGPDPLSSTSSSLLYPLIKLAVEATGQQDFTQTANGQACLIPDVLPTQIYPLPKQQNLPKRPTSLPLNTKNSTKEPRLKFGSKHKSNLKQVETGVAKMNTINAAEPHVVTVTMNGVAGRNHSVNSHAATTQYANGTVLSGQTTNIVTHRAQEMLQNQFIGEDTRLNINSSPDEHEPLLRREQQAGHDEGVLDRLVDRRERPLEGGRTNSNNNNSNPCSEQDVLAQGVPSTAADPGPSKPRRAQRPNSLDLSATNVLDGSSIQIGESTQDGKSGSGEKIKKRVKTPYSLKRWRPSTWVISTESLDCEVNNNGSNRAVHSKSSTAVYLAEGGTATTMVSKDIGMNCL
1-phosphatidylinositol 3-phosphate 5-kinase (Homo sapiens), sequence (Q9Y2I7 whole entry): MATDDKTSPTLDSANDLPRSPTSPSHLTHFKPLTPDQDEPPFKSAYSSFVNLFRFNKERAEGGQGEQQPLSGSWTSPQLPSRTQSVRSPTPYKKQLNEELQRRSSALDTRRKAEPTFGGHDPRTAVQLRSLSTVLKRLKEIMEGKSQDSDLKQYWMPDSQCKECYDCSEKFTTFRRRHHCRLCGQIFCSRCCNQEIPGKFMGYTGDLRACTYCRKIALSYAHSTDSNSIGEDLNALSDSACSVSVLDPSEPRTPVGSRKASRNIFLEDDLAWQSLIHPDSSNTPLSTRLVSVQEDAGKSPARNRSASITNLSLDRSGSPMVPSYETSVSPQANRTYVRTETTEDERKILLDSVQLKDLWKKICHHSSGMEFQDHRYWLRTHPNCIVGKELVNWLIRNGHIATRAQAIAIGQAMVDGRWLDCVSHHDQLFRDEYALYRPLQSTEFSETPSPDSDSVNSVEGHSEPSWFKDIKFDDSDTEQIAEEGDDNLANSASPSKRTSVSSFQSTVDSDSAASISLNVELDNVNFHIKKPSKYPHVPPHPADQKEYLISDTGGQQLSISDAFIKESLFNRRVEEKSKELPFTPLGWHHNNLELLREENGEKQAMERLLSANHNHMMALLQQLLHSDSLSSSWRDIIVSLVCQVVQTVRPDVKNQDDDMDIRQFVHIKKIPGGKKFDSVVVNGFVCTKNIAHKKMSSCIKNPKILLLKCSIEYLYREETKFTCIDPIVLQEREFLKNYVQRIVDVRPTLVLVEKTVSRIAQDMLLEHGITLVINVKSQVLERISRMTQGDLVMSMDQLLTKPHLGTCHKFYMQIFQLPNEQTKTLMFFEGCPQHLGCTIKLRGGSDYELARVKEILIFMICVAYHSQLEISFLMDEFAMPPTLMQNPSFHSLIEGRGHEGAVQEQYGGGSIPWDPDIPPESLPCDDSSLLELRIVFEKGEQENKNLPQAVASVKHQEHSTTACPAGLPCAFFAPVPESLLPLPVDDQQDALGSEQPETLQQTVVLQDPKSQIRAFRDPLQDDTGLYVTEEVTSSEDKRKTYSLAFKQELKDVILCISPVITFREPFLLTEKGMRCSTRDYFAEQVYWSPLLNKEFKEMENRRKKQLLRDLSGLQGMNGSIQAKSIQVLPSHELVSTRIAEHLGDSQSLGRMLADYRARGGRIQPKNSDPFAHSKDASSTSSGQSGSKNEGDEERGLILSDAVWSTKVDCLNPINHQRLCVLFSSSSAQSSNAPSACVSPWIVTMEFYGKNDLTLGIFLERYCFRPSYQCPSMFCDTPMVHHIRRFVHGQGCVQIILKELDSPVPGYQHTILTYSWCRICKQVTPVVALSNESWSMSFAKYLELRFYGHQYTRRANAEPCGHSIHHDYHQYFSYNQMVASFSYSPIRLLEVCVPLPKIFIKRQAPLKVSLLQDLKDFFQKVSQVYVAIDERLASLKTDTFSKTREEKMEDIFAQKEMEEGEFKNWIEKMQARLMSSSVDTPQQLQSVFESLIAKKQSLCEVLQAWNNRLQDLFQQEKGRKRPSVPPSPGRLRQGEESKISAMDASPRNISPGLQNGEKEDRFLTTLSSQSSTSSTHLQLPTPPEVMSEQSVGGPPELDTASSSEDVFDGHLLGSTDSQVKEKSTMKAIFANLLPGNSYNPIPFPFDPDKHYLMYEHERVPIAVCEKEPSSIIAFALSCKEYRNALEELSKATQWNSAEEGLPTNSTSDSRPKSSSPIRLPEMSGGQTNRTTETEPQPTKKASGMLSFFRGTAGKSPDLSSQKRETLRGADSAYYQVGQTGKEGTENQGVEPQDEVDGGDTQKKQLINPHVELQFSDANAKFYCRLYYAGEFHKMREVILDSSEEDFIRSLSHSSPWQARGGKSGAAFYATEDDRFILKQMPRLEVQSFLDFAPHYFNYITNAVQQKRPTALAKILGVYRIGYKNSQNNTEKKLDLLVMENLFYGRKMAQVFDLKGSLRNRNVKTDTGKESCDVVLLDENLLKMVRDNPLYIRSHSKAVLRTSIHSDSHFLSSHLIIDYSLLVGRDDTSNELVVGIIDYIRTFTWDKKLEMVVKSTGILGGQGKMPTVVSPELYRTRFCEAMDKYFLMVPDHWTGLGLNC
Beta-2 adrenergic receptor (Homo sapiens), sequence (P07550 whole entry, looked up): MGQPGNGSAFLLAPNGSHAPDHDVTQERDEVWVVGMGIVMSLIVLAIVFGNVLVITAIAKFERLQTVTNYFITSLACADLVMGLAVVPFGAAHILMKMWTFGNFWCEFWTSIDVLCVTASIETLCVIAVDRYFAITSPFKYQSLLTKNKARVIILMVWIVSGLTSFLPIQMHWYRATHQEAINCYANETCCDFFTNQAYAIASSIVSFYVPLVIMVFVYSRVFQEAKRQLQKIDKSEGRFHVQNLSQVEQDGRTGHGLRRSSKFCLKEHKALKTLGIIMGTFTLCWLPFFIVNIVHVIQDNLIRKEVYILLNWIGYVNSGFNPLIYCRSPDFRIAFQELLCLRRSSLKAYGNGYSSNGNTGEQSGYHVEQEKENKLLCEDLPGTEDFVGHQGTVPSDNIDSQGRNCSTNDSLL
Inhibitor of nuclear factor kappa-B kinase subunit alpha (Homo sapiens), sequence (O15111 whole entry): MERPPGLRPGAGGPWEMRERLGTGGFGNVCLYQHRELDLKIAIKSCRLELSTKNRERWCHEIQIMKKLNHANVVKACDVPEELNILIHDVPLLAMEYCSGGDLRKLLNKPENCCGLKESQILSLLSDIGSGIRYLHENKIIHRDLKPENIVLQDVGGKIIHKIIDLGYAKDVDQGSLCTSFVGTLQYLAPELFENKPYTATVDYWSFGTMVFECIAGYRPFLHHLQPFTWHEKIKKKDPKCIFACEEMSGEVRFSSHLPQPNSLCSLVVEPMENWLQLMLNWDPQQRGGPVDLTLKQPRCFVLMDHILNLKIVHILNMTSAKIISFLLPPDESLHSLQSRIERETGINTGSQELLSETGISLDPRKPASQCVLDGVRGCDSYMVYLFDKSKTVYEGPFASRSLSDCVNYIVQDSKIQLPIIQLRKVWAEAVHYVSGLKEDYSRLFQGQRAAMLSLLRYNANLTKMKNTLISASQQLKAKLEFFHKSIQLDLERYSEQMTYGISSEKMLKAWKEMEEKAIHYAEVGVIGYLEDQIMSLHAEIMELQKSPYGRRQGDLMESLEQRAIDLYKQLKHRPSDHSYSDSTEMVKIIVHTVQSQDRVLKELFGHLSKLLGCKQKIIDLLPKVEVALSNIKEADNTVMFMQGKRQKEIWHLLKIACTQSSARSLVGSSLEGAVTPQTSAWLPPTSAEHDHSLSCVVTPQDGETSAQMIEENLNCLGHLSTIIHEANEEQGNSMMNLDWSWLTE
Cyclin-dependent kinase 4 (Homo sapiens), sequence (P11802 whole entry): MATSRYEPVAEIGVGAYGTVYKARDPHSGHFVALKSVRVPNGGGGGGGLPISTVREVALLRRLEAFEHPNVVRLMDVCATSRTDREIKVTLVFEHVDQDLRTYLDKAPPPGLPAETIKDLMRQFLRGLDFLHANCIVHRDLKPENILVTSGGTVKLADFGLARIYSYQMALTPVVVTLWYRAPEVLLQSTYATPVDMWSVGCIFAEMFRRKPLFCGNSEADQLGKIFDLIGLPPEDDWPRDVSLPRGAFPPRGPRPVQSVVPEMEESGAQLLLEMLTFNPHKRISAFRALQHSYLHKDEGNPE

Cc1c[nH]c2nccc(Oc3c(F)cc(Nc4cc(Cl)nc(N)n4)cc3F)c12 [BAY-549]
inactive: inhibition [1] -7.12% | residual activity [2] 100% | residual activity [3] 98% | residual activity [4] 99% | residual activity [5] 100% | residual activity [6] 100% | residual activity [7] 88% | residual activity [8] 98% | residual activity [9] 100% | residual activity [10] 66% | residual activity [11] 68% | inhibition [12] -0.22% | residual activity [13] 64% | residual activity [14] 100% | residual activity [15] 80% | residual activity [16] 55% | residual activity [17] 80% | residual activity [18] 98% | residual activity [19] 67% | residual activity [20] 81% | residual activity [21] 98% | residual activity [22] 83% | residual activity [23] 100% | residual activity [24] 100% | residual activity [25] 84% | residual activity [26] 95% | inhibition [27] 11.7% | residual activity [28] 100% | residual activity [29] 69% | residual activity [30] 77% | residual activity [31] 83% | residual activity [32] 100% | residual activity [33] 81%

Cn1cc(Cl)c2c(Oc3c(F)cc(Nc4cc(Cl)nc(N)n4)cc3F)ccnc21 [BAY-4900]
inactive: inhibition [1] 10.2% | residual activity [2] 100% | residual activity [3] 100% | residual activity [4] 100% | residual activity [5] 100% | residual activity [6] 100% | residual activity [7] 85% | residual activity [8] 91% | residual activity [9] 100% | residual activity [10] 85% | residual activity [11] 82% | inhibition [12] -5.04% | residual activity [13] 98% | residual activity [14] 91% | residual activity [15] 95% | residual activity [16] 74% | residual activity [17] 89% | residual activity [18] 78% | residual activity [19] 85% | residual activity [20] 90% | residual activity [21] 90% | residual activity [22] 62% | residual activity [23] 96% | residual activity [24] 100% | residual activity [25] 98% | residual activity [26] 100% | inhibition [27] -4.05% | residual activity [28] 100% | residual activity [29] 97% | residual activity [30] 100% | residual activity [31] 91% | residual activity [32] 100% | residual activity [33] 83%
